Patent US9840512B2, “Antidiabetic bicyclic compounds” (Merck Sharp & Dohme Corp., priority 2013, dated 2017)

What was measured:
human GPR40 [1] = target: T1, human GPR40 (Homo sapiens, UniProt O14842); experiment: FLIPR assay (agonist-induced calcium mobilization); details: Human FLIPR EC50, nM or % activation (EC50 values), GPR40/CHO NFAT BLA cells
Protocol: Human and mouse GPR40 stable cell-lines were generated in CHO cells stably expressing NFAT BLA (Beta-lactamase). […] The expression plasmids were transfected using lipofectamine (Life Technologies) following manufacturer's instructions. Stable cell-lines were generated following drug selection.
FLIPR (Fluorimetric Imaging Plate Reader, Molecular Devices) assays were performed to measure agonist-induced calcium mobilization of the stable clones. For the FLIPR assay, one day before assay, GPR40/CHO NFAT BLA cells were seeded into black-wall-clear-bottom 384-well plates (Costar) at 1.4×10e4 cells/20 μL medium/well. The cells were incubated with 20 μl/well of the assay buffer (HBSS, 0.1% BSA, 20 mM HEPES, 2.5 mM probenecid, pH 7.4) containing 8 μM fluo-4, AM, 0.08% pluronic acid at room temperature for 100 minutes. Fluorescence output was measured using FLIPR. Compounds were dissolved in DMSO and diluted to desired concentrations with assay buffer.

human GPR40 [2] = target: T1, human GPR40; experiment: Inositol Phosphate Turnover (IP1) Assay 1; details: Human IP1 Assay 1, EC50, nM, HEK cells stably expressing human GPR40
Protocol: The assay is performed in 96-well format. HEK cells stably expressing human GPR40 are plated to be 60-80% confluent within 72 h. After 72 h, the plates are aspirated and the cells washed with inositol-free DMEM (ICN). The wash media is replaced with 150 μL of 3H-inositol labeling media (inositol-free media containing 0.4% human albumin or 0.4% mouse albumin, 1× pen/strep antibiotics, glutamine, 25 mM HEPES to which is added 3H-myo-inositol NEN #NET114A 1 mCi/mL, 25 Ci/mmol diluted 1:150 in loading media with a final specific radioactivity of 1 μCi/150 μL). Alternatively, the human and mouse albumin can be added after the overnight labeling step before the addition of LiCl.
The assay is typically run the next day after 18 h labeling. On the day of the assay, 5 μL of 300 mM LiCl is added to all wells and incubated at 37 degrees for 20 min. 0.75 μL of 200× compounds are added and incubated with the cells for 60 min at 37 degrees. The media is then aspirated off and the assay terminated with the addition of 60 μL 10 mM formic acid. The cells are lysed for 60 min at room temperature. 15-30 μL of lysate is mixed with 70 μL/1 mg YSi SPA beads (Amersham) in clear bottom Isoplates. The plates are shaken for 2 h at room temperature. Beads are allowed to settle and the plates are counted in the Wallac Microbeta.

T1 sequence (O14842 whole entry): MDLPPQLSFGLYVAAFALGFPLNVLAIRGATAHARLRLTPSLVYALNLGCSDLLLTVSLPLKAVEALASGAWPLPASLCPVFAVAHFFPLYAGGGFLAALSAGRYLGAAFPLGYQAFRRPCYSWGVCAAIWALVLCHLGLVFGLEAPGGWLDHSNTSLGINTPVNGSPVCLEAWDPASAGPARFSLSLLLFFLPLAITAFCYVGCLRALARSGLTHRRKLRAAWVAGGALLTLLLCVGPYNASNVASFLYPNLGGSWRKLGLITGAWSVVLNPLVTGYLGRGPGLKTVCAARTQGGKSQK

Compound | EC50 (human GPR40 [1]) [nM] | EC50 (human GPR40 [2]) [nM]
CC#C[C@@H](CC(=O)O)c1ccc2c(c1)CCC(c1cc(-c3c(C)cccc3C)ccc1F)O2 (single isomer, unassigned) [Example 21] | 26 | 83
CC#CC(CC(=O)O)c1ccc2c(c1)CCC(c1cccc(-c3c(C)noc3C)c1)O2 (mixture of isomers) [Example 22] | 151 | 638
CC#C[C@@H](CC(=O)O)c1ccc2c(c1)CCC(c1cc(C3=CCCC3(C)C)ccc1F)O2 (mixture of isomers) [Example 33] | 114 | 1300
CC#CC(CC(=O)O)c1ccc2c(c1)CCC(c1cc(Br)ccc1F)O2 (mixture of isomers) [Example 28] | 115 | 536
CC#C[C@@H](CC(=O)O)c1ccc2c(c1)CCC(c1ccc(OCc3ccccc3)cc1)O2 (mixture of isomers) [Example 50] | 9 | 877
CC#C[C@@H](CC(=O)O)c1ccc2c(c1)CCC(c1cccc(-c3cccc4c3c(C(F)(F)F)nn4C)c1)O2 (single isomer, unassigned) [Example 42] | 74 | 1220
Cc1cc(OCCS(C)(=O)=O)cc(C)c1-c1cccc(C2CCc3cc(CCC(=O)O)ccc3O2)c1 (racemic) [Example 6] | 185 | 1700
CC#CC(CC(=O)O)c1ccc2c(c1)CCC(c1cc(-c3ccc(OC)nc3C)ccc1F)O2 (mixture of isomers) [Example 24] | 57 | 58
CC#C[C@@H](CC(=O)O)c1ccc2c(c1)CCC(c1cc(-c3cccnc3C(F)(F)F)ccc1F)O2 (mixture of isomers) [Example 31] | 95 | 60
Cc1cccc(C)c1-c1cccc(C2CCc3cc(CCC(=O)O)ccc3O2)c1 (single isomer, unassigned) [Example 4] | 38 | 544
Cc1cccc(C)c1-c1cccc(C2CCc3cc(CCC(=O)O)ccc3O2)c1 (single isomer, unassigned) [Example 5] | 85 | 1670

Now from value to compound:

EC50 (human GPR40 [1]) [nM] | EC50 (human GPR40 [2]) [nM] | Compound
37 | 31 | CC#C[C@@H](CC(=O)O)c1ccc2c(c1)CCC(c1cc(-c3cccnc3C(F)(F)F)ccc1F)O2 (single isomer, unassigned) [Example 35]
17 | 248 | CC#C[C@@H](CC(=O)O)c1ccc2c(c1)CCC(c1ccc(OCc3ccccc3)c(-c3c(C)cccc3C)c1)O2 (mixture of isomers) [Example 52]
38 | 47 | CC#C[C@@H](CC(=O)O)c1ccc2c(c1)CCC(c1cc(-c3ccc(OC)nc3C)ccc1F)O2 (single isomer, unassigned) [Example 37]
106 | 4500 | CC#CC(CC(=O)O)c1ccc2c(c1)CCC(c1nc(-c3ccc(OC)nc3C)ccc1F)O2 (mixture of isomers) [Example 19]
52 | 726 | CC#CC(CC(=O)O)c1ccc2c(c1)CCC(c1cccc(-c3ccccc3C(F)(F)F)c1)O2 (mixture of isomers) [Example 27]
